Laboratory results as given in the supplement of paper PMC8671470.

How the values were obtained:
Details in all cases: 72 h
[1] = system: HL-60; test: cell viability (% survival relative to DMSO control); higher = less cytotoxic
In short: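 For each screen, HL-60 cells in RPMI 1640 with 10% FBS carried either DMSO or 100 nM of one of three metabolic inhibitors while the full library was applied at five tenfold concentrations, 1–10,000 nM, in duplicate. Plates were 384-well and were kept 72 h at 37 °C, 5% CO2. Viability, measured by CellTiter-Glo, was normalised to wells with DMSO and with 10 μM proteasome inhibitor. Where area under the curve appears, it was fitted by four-parameter log-logistic models in drc and PharmacoGx.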

[2] = system: HL-60; test: cell viability (% survival relative to DMSO control, bortezomib = 0%); higher = less cytotoxic
In short: (§1)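 Fifteen myeloid leukaemia cell lines (10 AML, 5 CML) were seeded at a density titrated to the linear growth range into 384-well plates pre-printed with compounds at 1, 10, 100, 1000 or 10000 nM in duplicate. Plates were incubated for 72 h at 37 °C with 5% CO2. Viability was then read by CellTiter-Glo luminescence. Each value is percent survival averaged over the duplicates, with vehicle set to 100% and a 10 µM positive control to 0%.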

[3] = system: MOLM-13; test: as above
In short: as §1

[4] = system: THP-1; test: as above
In short: as §1

[5] = system: NOMO-1; test: as above
In short: as §1

[6] = system: HEL; test: as above
In short: as §1

[7] = system: BV-173; test: as above
In short: as §1

[8] = system: Mono-Mac-6; test: as above
In short: as §1

[9] = system: MV4-11; test: as above
In short: as §1

[10] = system: LAMA-84; test: as above
In short: as §1

[11] = system: ML-2; test: as above
In short: as §1

[12] = system: SHI-1; test: as above
In short: as §1

[13] = system: KG-1; test: as above
In short: as §1

[14] = system: KCL-22; test: as above
In short: as §1

[15] = system: KU-812; test: as above
In short: as §1

[16] = system: K-562; test: as above
In short: as §1

[17] = system: NOMO-1
In short: (§2)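 Fifteen myeloid leukaemia lines in RPMI 1640 were treated for 72 h at 37 °C and 5% CO2 with five tenfold doses from 1 to 10,000 nM, in duplicate. ATP luminescence was normalised to vehicle and to a positive control at 10 µM, then fitted with a four-parameter log-logistic model. The IC50 came from these fits.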

[18] = system: Mono-Mac-6
In short: as §2

[19] = system: MV4-11
In short: as §2

[20] = system: KU-812
In short: as §2

[21] = system: K-562
In short: as §2

CCCc1nc(C)c2c(=O)nc(-c3cc(S(=O)(=O)N4CCN(CC)CC4)ccc3OCC)[nH]n12 [Vardenafil]
cell viability [%], [1]
Details | 0.001 µM | 0.01 µM | 0.1 µM | 1 µM | 10 µM
co-treatment: AZD3965 100 nM | 98.1 | 100 | 96.8 | 108 | 100
co-treatment: DMSO vehicle | 98.07 | 99.7 | 84.9 | 98.5 | 103
co-treatment: GSK2194069 100 nM | 97.9 | 98.3 | 88.3 | 108.1 | 92.4
co-treatment: pictilisib 100 nM | 101 | 104 | 93 | 104 | 107

cell viability [%]
Details | 1 nM | 10 nM | 100 nM | 1000 nM | 10000 nM
[2] | 107 | 115 | 89.2 | 112 | 102
[3] | 107 | 123 | 71.2 | 91.2 | 94.5
[4] | 93.8 | 85 | 107 | 108 | 96.5
[5] | 94.4 | 84.3 | 96.1 | 101 | 93.1
[6] | 91.9 | 111 | 94.4 | 102 | 93.7
[7] | 98.3 | 80.3 | 101 | 108 | 82.8
[8] | 102 | 83 | 106 | 95.1 | 102
[9] | 97.9 | 87.5 | 85.2 | 97.7 | 93.3
[10] | 92.6 | 95.2 | 101 | 92.2 | 97.8
[11] | 98.8 | 96.3 | 88 | 97.4 | 110
[12] | 102 | 115 | 89.8 | 99.7 | 101
[13] | 95.4 | 95.9 | 92.8 | 110 | 107
[14] | 105 | 110 | 98.3 | 95.8 | 94.6
[15] | 95.4 | 106 | 92 | 102 | 102
[16] | 109 | 107 | 93.8 | 90.8 | 92.6

Details | IC50 (cell viability) [µM]
[17] | > 10
[18] | > 10
[19] | > 10
[20] | > 10
[21] | > 10

OC[C@H]1O[C@@H](n2cnc3c2N=CNC[C@H]3O)C[C@@H]1O [Pentostatin]
cell viability [%], [1]
Details | 0.001 µM | 0.01 µM | 0.1 µM | 1 µM | 10 µM
co-treatment: AZD3965 100 nM | 97.8 | 105 | 100 | 102 | 100.2
co-treatment: DMSO vehicle | 92.3 | 105 | 94.9 | 106 | 102
co-treatment: GSK2194069 100 nM | 86.6 | 101 | 98.8 | 101 | 93.96
co-treatment: pictilisib 100 nM | 89.2 | 102 | 91.2 | 103 | 96.2

cell viability [%]
Details | 1 nM | 10 nM | 100 nM | 1000 nM | 10000 nM
[2] | 99.5 | 99.7 | 98.2 | 100 | 118
[3] | 86.9 | 99.7 | 101 | 110 | 114
[4] | 102 | 93.5 | 111 | 98.3 | 103
[5] | 105 | 94.3 | 113 | 98.8 | 106
[6] | 105 | 89.4 | 102 | 103 | 142
[7] | 102 | 97.4 | 117 | 94.5 | 101
[8] | 104 | 94.2 | 105 | 91.9 | 99.3
[9] | 95.8 | 104 | 107 | 105 | 103
[10] | 102 | 99.6 | 111 | 101 | 108
[11] | 99.2 | 86.6 | 99.1 | 108 | 123
[12] | 93.9 | 100 | 94.5 | 100 | 111
[13] | 101 | 104 | 97.9 | 108 | 97.8
[14] | 99.1 | 89.9 | 101 | 94.3 | 105
[15] | 96.4 | 99.5 | 112 | 95.1 | 115
[16] | 95.3 | 106 | 111 | 99.2 | 107

Details | IC50 (cell viability) [µM]
[17] | > 10
[18] | > 10
[19] | > 10
[20] | > 10
[21] | > 10

COc1ccc2c(NC(=O)Nc3cccc(C(F)(F)F)n3)ccnc2c1
cell viability [%], [1]
Details | 0.001 µM | 0.01 µM | 0.1 µM | 1 µM | 10 µM
co-treatment: AZD3965 100 nM | 100 | 99.88 | 104.1 | 101.3 | 101
co-treatment: DMSO vehicle | 101.7 | 82.9 | 103 | 103 | 111
co-treatment: GSK2194069 100 nM | 95.4 | 95.5 | 99.2 | 95.9 | 92.5
co-treatment: pictilisib 100 nM | 104 | 73.9 | 98.4 | 86.5 | 121

cell viability [%]
Details | 1 nM | 10 nM | 100 nM | 1000 nM | 10000 nM
[2] | 86.5 | 129 | 116 | 116 | 98.3
[3] | 105 | 115 | 113 | 108 | 44.5
[4] | 95.5 | 101 | 105 | 95.2 | 107
[5] | 97.4 | 98.2 | 113 | 94.5 | 113
[6] | 116 | 99.2 | 105 | 106 | 108
[7] | 104 | 93.6 | 111 | 102 | 87.4
[8] | 108 | 92.3 | 95.7 | 94.9 | 97.1
[9] | 102 | 103 | 101 | 85.7 | 77.2
[10] | 102 | 100 | 105 | 100 | 100
[11] | 101 | 97.6 | 109 | 122 | 127
[12] | 93.6 | 109 | 104 | 110 | 85.4
[13] | 90.7 | 85 | 92 | 93.9 | 120
[14] | 101 | 102 | 110 | 94.9 | 114
[15] | 116 | 102 | 108 | 109 | 112
[16] | 104 | 100 | 95.3 | 93.7 | 103

Details | IC50 (cell viability) [µM]
[17] | > 10
[18] | > 10
[19] | > 10
[20] | > 10
[21] | > 10
